In US6440986B2, “HIV Inhibiting pyrimidine derivatives” (Janssen Pharmaceutica, N.V., priority 1998, dated 2002):
Where two headings read alike, the source gives them in different places.

Assays:
[1] = cytotoxicity in mock-infected MT-4 cells (MTT); format: cell-based; details: human, mock-infected MT-4 cells, 50% cytotoxic concentration; reduces absorbance of mock-infected MT-4 control by 50%; MTT
Protocol: (§1) A rapid, sensitive and automated assay procedure was used for the in vitro evaluation of anti-HIV agents. […] Inhibition of the HIV-induced cytopathic effect was used as the end point. The viability of both HIV- and mock-infected cells was assessed spectrophotometrically via the in situ reduction of 3-(4,5-dimethylthiazol-2-yl)-2,5-diphenyltetrazolium bromide (MTT). […] The percent protection achieved by the compound in HIV-infected cells was calculated by the following formula: [formula]
(§2) whereby (ODT)HIV is the optical density measured with a given concentration of the test compound in HIV-infected cells; (ODC)HIV is the optical density measured for the control untreated HIV-infected cells: (ODC)MOCK is the optical density measured for the control untreated mock-infected cells; all optical density values were determined at 540 nm. […] The ratio of CC50 to IC50 was defined as the selectivity index (SI).

[2] = tested on: HIV-1; experiment: in vitro anti-HIV assay: inhibition of the HIV-induced cytopathic effect in MT-4 cells (MTT); format: cell-based; details: OD 540 nm
Protocol: A rapid, sensitive and automated assay procedure was used for the in vitro evaluation of anti-HIV agents. An […] T4-cell line, MT-4, which was previously shown (Koyanagi et al., Int. J. Cancer, 36, 445-451, 1985) to be highly susceptible to and permissive for HIV infection, served as the target cell line. Inhibition of the HIV-induced cytopathic effect was used as the end point. The viability of both HIV- and mock-infected cells was assessed spectrophotometrically via the in situ reduction of 3-(4,5-dimethylthiazol-2-yl)-2,5-diphenyltetrazolium bromide (MTT). […] The percent protection achieved by the compound in HIV-infected cells was calculated by the following formula: [formula]
as §2

[3] = tested on: MT-4 cells (mock-infected); experiment: cytotoxicity in mock-infected MT-4 cells (MTT); format: cell-based
Protocol: as §1, §2

[4] = Human immunodeficiency virus 1, MT4, dose achieving 50% protection of HIV-infected MT-4 cells against cytopathic effect
[5] = dose achieving 50% protection of HIV-infected MT-4 cells against cytopathic effect

Row | Compound | CC50 [1] | IC50 [2, 4] | melting point | CC50 [3] | IC50 [2, 5] | CC50 ([3]; 50% cytotoxic concentration, reduces absorbance of mock-infected MT-4 control by 50%, MTT, read-out: CC50)
1 | N#Cc1ccc(Nc2nc(Cc3c(Cl)cccc3Cl)cc(NCCCO)n2)cc1 [Compound 3, 4-[[4-[(2,6-dichloro-phenyl)methyl]-6-[(3-hydroxypropyl)amino]-2-pyrimidinyl]amino]benzonitrile] | 37.4 µM | 0.016 µM |  |  |  | 
2 | N#Cc1ccc(Nc2nc(Cc3c(Cl)cccc3Cl)cc(NCCN3CCCC3)n2)cc1 [Compound 13, 4-[[4-[(2,6-dichloro-phenyl)methyl]-6-[[2-(1-pyrrolidinyl)ethyl]amino]-2-pyrimidinyl]amino]benzonitrile] | 7.8 µM | 0.005 µM | 80 to 85 °C |  |  | 
3 | CCCCCCCC(=O)Nc1cc(Cc2c(Cl)cccc2Cl)nc(Nc2ccc(C#N)cc2)n1 [Compound 17, N-[6-[(2,6-dichloro-phenyl)methyl]-2-[(4-cyano-phenyl)amino]-4-pyrimidinyl]octanamide] | 9.1 µM | 0.167 µM | 135 to 137 °C |  |  | 
4 | N#Cc1ccc(Nc2nc(Cc3c(Cl)cccc3Cl)cc(NC(=O)CN3CCCCC3)n2)cc1 [Compound 25, N-[6-[(2,6-dichloro-phenyl)methyl]-2-[(4-cyano-phenyl)amino]-4-pyrimidinyl]-1-piperidine-acetamide] | > 100 µM | 0.079 µM | 175 to 180 °C |  |  | 
5 | CN(C)C=Nc1cc(Cc2c(Cl)cccc2Cl)nc(Nc2ccc(C#N)cc2)n1 [Compound 26, N′-[2-[(4-cyanophenyl)amino]-6-[(2,6-dichlorophenyl)methyl]-4-pyrimidinyl]-N,N-dimethylmethanimidamide] | 33.5 µM | 0.011 µM | 175 to 180 °C |  |  | 
6 | N#Cc1ccc(Nc2cc(Cc3c(Cl)cccc3Cl)nc(NCCCN3CCCC3=O)n2)cc1 [Compound 39, 4-[[6-[(2,6-dichloro-phenyl)methyl]-2-[[3-(2-oxo-1-pyrrolidinyl)propyl]amino]-4-pyrimidinyl]amino]benzonitrile] | > 100 µM | 1.53 µM |  |  |  | 
7 | Cc1cc(C)c(Nc2ccnc(Nc3ccc(C#N)cc3)n2)c(C)c1 [Compound 52, 4-[[4-[(2,4,6-trimethylphenyl)amino]-2-pyrimidinyl]amino]benzonitrile] | 2.08 µM | 0.001 µM |  |  |  | 
8 | Cc1cc(C)c(Oc2ccnc(Nc3ccc(C#N)cc3)n2)c(C)c1 [Compound 58, 4-[[4-(2,4,6-trimethylphenoxy)-2-pyrimidinyl]amino]benzonitrile] | > 100 µM | 0.0029 µM |  |  |  | 
9 | Cc1cc(Br)c(Nc2ccnc(Nc3ccc(C#N)cc3)n2)c(Br)c1 [Compound 61, 4-[[4-[(2,6-dibromo-4-methylphenyl)amino]-2-pyrimidinyl]amino]benzonitrile] | 0.1 µM | 0.0007 µM |  |  |  | 
10 | N#Cc1ccc(Nc2nccc(Nc3c(Cl)cc(C(F)(F)F)cc3Cl)n2)cc1 [Compound 66, 4-[[4-[[2,6-dichloro-4-(trifluoromethyl)-phenyl]amino]-2-pyrimidinyl]amino]benzonitrile] | 19.9 µM | 0.0085 µM |  |  |  | 
11 | N#Cc1ccc(Nc2nccc(Nc3c(Cl)cc(Br)c(Cl)c3Br)n2)cc1 [Compound 78] |  |  |  | 0.4 µM | 0.0028 µM | 
12 | CCCc1cc(Br)c(Nc2ccnc(Nc3ccc(C#N)cc3)n2)c(Br)c1 [Compound 79] |  |  |  | 4.8 µM | 0.0031 µM | 
13 | Cc1cc(C(C)(C)C)cc(C)c1Nc1ccnc(Nc2ccc(C#N)cc2)n1 [Compound 80] |  |  |  | 8.7 µM | 0.011 µM | 
14 | Cc1cc(C#N)cc(C)c1Oc1ccnc(Nc2ccc(C#N)cc2)n1 [Compound 81] |  |  |  | > 100 µM | 0.0011 µM | 
15 | Cc1cnc(Nc2ccc(C#N)cc2)nc1Nc1c(C)cc(Cl)cc1C [Compound 82] |  |  |  | 0.4 µM | 0.0026 µM | 
16 | Cc1cnc(Nc2ccc(C#N)cc2)nc1Nc1c(C)cc(C(C)(C)C)cc1C [Compound 84] |  |  |  | 9.3 µM | 0.012 µM | 
17 | Cc1cnc(Nc2ccc(C#N)cc2)nc1Nc1c(C)cc(Br)cc1C [Compound 85] |  |  |  | 0.4 µM | 0.002 µM | 
18 | Cc1cc(C)c(Sc2nc(Nc3ccc(C#N)cc3)ncc2C)c(C)c1 [Compound 86] |  |  |  | > 100 µM | 0.01 µM | 

Row | Compound | CC50 [1] | IC50 [2, 4] | melting point | CC50 [3] | IC50 [2, 5] | CC50 ([3]; 50% cytotoxic concentration, reduces absorbance of mock-infected MT-4 control by 50%, MTT, read-out: CC50)
19 | CCCc1cc(Br)c(Nc2nc(Nc3ccc(C#N)cc3)ncc2C)c(Br)c1 [Compound 87] |  |  |  | 2.2 µM | 0.0031 µM | 
20 | Cc1cnc(Nc2ccc(C#N)cc2)nc1Nc1c(Br)cc(C(C)C)cc1Br [Compound 88] |  |  |  | 2.1 µM | 0.0027 µM | 
21 | Cc1cnc(Nc2ccc(C#N)cc2)nc1Nc1c(C)cc(C#N)cc1C [Compound 89, 4-[[2-[(4-cyanophenyl)amino]-5-methyl-4-pyrimidinyl]amino]-3,5-dimethylbenzonitrile] | 0.4 µM | 0.0007 µM |  |  |  | 
22 | Cc1cc(C)c(Nc2ccnc(Nc3ccc(C#N)cc3N)n2)c(C)c1 [Compound 90] |  |  |  | 30.8 µM | 3.4 µM | 
23 | Cc1cc(C)c(Nc2ccnc(Nc3ccc(C#N)c(O)c3)n2)c(C)c1 [Compound 91] |  |  |  | 4.9 µM | 0.0025 µM | 
24 | Clc1cccc(Cl)c1Nc1ccnc(Nc2c(Cl)cccc2Cl)n1 [Compound 92] |  |  |  | > 90 µM | 45 µM | 
25 | Cc1cc(C)c(Nc2nccc(Nc3ccc(C#N)cc3)n2)c(C)c1 [Compound 93] |  |  |  | 48.1 µM | 0.0035 µM | 
26 | Cc1cc(C)c(Nc2cc(N)nc(Nc3ccc(C#N)cc3)n2)c(C)c1 [Compound 94] |  |  |  | 11.1 µM | 0.0022 µM | 
27 | Cc1cc(C)c(Nc2cc(Nc3ccc(C#N)cc3)nc(N)n2)c(C)c1 [Compound 95] |  |  |  | 7.7 µM | 0.0006 µM | 
28 | Cc1cc(C)c(Nc2ccnc(Nc3ccc(Cl)cc3)n2)c(C)c1 [Compound 96] |  |  |  | 5.8 µM | 0.0031 µM | 
29 | Cc1cc(C)c(Nc2ccnc(Nc3ccc(F)cc3F)n2)c(C)c1 [Compound 97] |  |  |  | 13.2 µM | 0.032 µM | 
30 | Cc1cc(C)c(Nc2ccnc(Nc3ccc(Br)cn3)n2)c(C)c1 [Compound 98] |  |  |  | 13.8 µM | 2 µM | 
31 | Cc1cc(C)c(Nc2ccnc(Nc3ccc(C(N)=O)cc3)n2)c(C)c1 [Compound 100, 4-[[4-[(2,4,6-trimethylphenyl)amino]-2-pyrimidinyl]amino]benzamide] | 0.8 µM | 0.075 µM |  |  |  | 
32 | Cc1cc(C)c(Nc2ccnc(Nc3ccc(C(N)=O)c(N)c3)n2)c(C)c1 [Compound 101] |  |  |  | 29.5 µM | 0.053 µM | 
33 | Cc1cc(C)c(Nc2ccnc(Nc3ccc(C#N)c(N)c3)n2)c(C)c1 [Compound 102] |  |  |  |  | 0.0082 µM | 0.5 µM
34 | Cc1c(N)nc(Nc2ccc(CC#N)cc2)nc1Cc1c(Cl)cccc1Cl [Compound 103] |  |  |  | > 100 µM | 0.022 µM | 
35 | N#Cc1ccc(Nc2nccc(NCc3ccccc3)n2)cc1 [Compound 104] |  |  |  | 18.6 µM | 0.0034 µM | 
